SMILES strings stand for the structures.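 Where inhibition never reached the appropriate level, the endpoint shown equals the highest concentration tested. Otherwise, values were interpolated linearly from a five-concentration, 48-hour dose response in 96-well plates. TGI denotes the concentration required for complete inhibition of growth.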 Some results are limits rather than exact numbers.

Some test systems named below: A498 renal; A549 NSCLC; CCRF-CEM leukemia; HCT-116 colon; HCT-15 colon; IGROV1 ovarian; NCI-H522 lung; OVCAR-5 ovarian; RPMI-8226 leukemia; SF-268 CNS; SK-OV-3 ovarian; SR leukemia; TK-10 renal; DU-145 prostate; T-47D breast.
Common to all, as to experiment: inhibition of tumour cell growth, NCI panel, 48 h

In the case of `C=CCC1C(=O)C(C(=O)OC)N2CCc3c([nH]c4ccccc34)C12` (stereo not given), the TGI with A498 renal, in the experiment with A549 NSCLC, in the experiment on CCRF-CEM leukemia, with HCT-116 colon, with HCT-15 colon and in the experiment with IGROV1 ovarian was more than 100 µM throughout. In addition, the TGI in the experiment on NCI-H522 lung, with OVCAR-5 ovarian, in the experiment with RPMI-8226 leukemia, with SF-268 CNS, in the experiment with SK-OV-3 ovarian and in the experiment on SR leukemia was more than 100 µM in each case. Further, the TGI with TK-10 renal was more than 100 µM.
On to `CC1(c2cccc3c2C2(O)C=CC4(CCC32)OCCO4)OCCO1` (stereo not given), for which the TGI in the experiment with A498 renal, with A549 NSCLC, in the experiment on CCRF-CEM leukemia, in the experiment with HCT-116 colon, in the experiment with HCT-15 colon and with IGROV1 ovarian was more than 100 µM throughout. Further, the TGI in the experiment on NCI-H522 lung, with OVCAR-5 ovarian, in the experiment with RPMI-8226 leukemia, in the experiment with SF-268 CNS, in the experiment with SK-OV-3 ovarian and in the experiment with TK-10 renal was more than 100 µM throughout.
Turning to `CCCCCCCC(=O)OC[C@@H](C[As](=O)(O)O)OC(=O)CCCCCCC`, the TGI with A498 renal is 24 µM; in the experiment with A549 NSCLC, 19.3 µM; with CCRF-CEM leukemia it was 9.55 µM; in the experiment with HCT-116 colon, 22.6 µM; in the experiment with HCT-15 colon it was 22.4 µM; in the experiment with IGROV1 ovarian, 16.4 µM. For the same compound, the TGI with NCI-H522 lung is 4.83 µM; in the experiment with RPMI-8226 leukemia it was 46.2 µM; in the experiment with SF-268 CNS, 20.3 µM; with SK-OV-3 ovarian, 28.1 µM; in the experiment with SR leukemia, 40.5 µM.
As for `Cc1nc(Cl)c2sc(=S)n(-c3ccc(F)cc3)c2n1`, the TGI in the experiment on A498 renal is 7.23 µM; in the experiment with A549 NSCLC it was 25.4 µM; in the experiment on CCRF-CEM leukemia, more than 100 µM; in the experiment with DU-145 prostate it was 3.82 µM; in the experiment on HCT-116 colon it was 4.15 µM; with HCT-15 colon, 15.1 µM. Besides, the TGI was 3.53 µM with IGROV1 ovarian; 10.9 µM in the experiment with NCI-H522 lung; 24.1 µM in the experiment with OVCAR-5 ovarian; more than 100 µM in the experiment with RPMI-8226 leukemia; 5.29 µM with SF-268 CNS; 25.9 µM with SK-OV-3 ovarian. Further, the values for the TGI in the experiment on SR leukemia and with TK-10 renal were 2.99 µM and 12.8 µM, respectively.
As for `CC1C2=C(CC(C)(C)CC2=O)NC2=C1C(=O)CC(C)(C)C2`, the TGI in the experiment with A498 renal, with A549 NSCLC, with CCRF-CEM leukemia, in the experiment with HCT-15 colon, in the experiment with IGROV1 ovarian and with OVCAR-5 ovarian was more than 100 µM in each case. The TGI in the experiment on RPMI-8226 leukemia, in the experiment with SF-268 CNS, in the experiment on SK-OV-3 ovarian, in the experiment with SR leukemia and in the experiment on TK-10 renal was more than 100 µM throughout.
For `COC(=O)C1CC(=O)CCC1c1ccccc1` (stereo not given), the TGI in the experiment with A498 renal, in the experiment with A549 NSCLC, in the experiment on CCRF-CEM leukemia, with HCT-116 colon, in the experiment on HCT-15 colon and with IGROV1 ovarian was more than 100 µM in each case. Besides, the TGI with NCI-H522 lung, in the experiment on OVCAR-5 ovarian, in the experiment on RPMI-8226 leukemia, in the experiment on SF-268 CNS, with SK-OV-3 ovarian and in the experiment on SR leukemia was more than 100 µM throughout. Moreover, in the experiment on TK-10 renal, the TGI was more than 100 µM.
`O=C1CSC(/C(=C/c2ccccc2)c2nc3ccccc3[nH]2)=N1`: the TGI in the experiment with A498 renal, in the experiment on A549 NSCLC, with CCRF-CEM leukemia, in the experiment with HCT-116 colon, in the experiment on HCT-15 colon and in the experiment with IGROV1 ovarian was more than 100 µM each time. The TGI is more than 100 µM in the experiment with NCI-H522 lung; more than 100 µM with OVCAR-5 ovarian; more than 100 µM with SF-268 CNS; 59.5 µM with SK-OV-3 ovarian; more than 100 µM in the experiment on SR leukemia; more than 100 µM in the experiment on TK-10 renal.
On to `O=C(O)c1nc2cc(C(F)(F)F)ccc2nc1Nc1ccc(Cl)c(Cl)c1`, for which the TGI stood at 31.1 µM in the experiment on A498 renal; 21.8 µM with A549 NSCLC; 21.1 µM in the experiment with HCT-116 colon; 24.8 µM in the experiment with HCT-15 colon; 39.3 µM in the experiment with IGROV1 ovarian; 31.4 µM in the experiment on NCI-H522 lung. The TGI in the experiment on OVCAR-5 ovarian is 32 µM; in the experiment with RPMI-8226 leukemia it was 59 µM; in the experiment on SF-268 CNS, 36.4 µM; in the experiment on SK-OV-3 ovarian it was 30.7 µM; in the experiment on SR leukemia it was 96.3 µM; with T-47D breast, 36.8 µM. In the experiment with TK-10 renal, the TGI is 37.1 µM.
For the compound `CC1=CCC2(C#N)CCC1C2O` (stereo not given), the TGI in the experiment on A498 renal, in the experiment on A549 NSCLC, in the experiment on CCRF-CEM leukemia, in the experiment with HCT-116 colon, in the experiment with HCT-15 colon and in the experiment on IGROV1 ovarian was more than 100 µM each time. Also, the TGI with NCI-H522 lung, in the experiment on OVCAR-5 ovarian, with RPMI-8226 leukemia, in the experiment on SF-268 CNS, in the experiment with SK-OV-3 ovarian and in the experiment on SR leukemia was more than 100 µM throughout. The TGI with TK-10 renal is more than 100 µM.
For `NC(=O)c1cc(-c2ccc(-n3ccnc3)cc2)n[nH]c1=O`, the TGI in the experiment on A498 renal, in the experiment with A549 NSCLC, in the experiment on CCRF-CEM leukemia, in the experiment on DU-145 prostate, with HCT-116 colon and in the experiment with HCT-15 colon was more than 100 µM each time. Moreover, the TGI with IGROV1 ovarian, in the experiment with NCI-H522 lung, in the experiment with OVCAR-5 ovarian, in the experiment with RPMI-8226 leukemia, in the experiment on SF-268 CNS and in the experiment with SK-OV-3 ovarian was more than 100 µM throughout. In addition, the TGI in the experiment on SR leukemia and in the experiment with TK-10 renal was more than 100 µM each time.
As for `Cc1ccc(N/C(Sc2ccccc2)=C(/C(Cl)=C(Cl)Cl)[N+](=O)[O-])c(C)c1`, the TGI was 53.4 µM in the experiment on A498 renal; more than 81.5 µM in the experiment with A549 NSCLC; 76.1 µM with CCRF-CEM leukemia; more than 87.1 µM with DU-145 prostate; 30.8 µM with HCT-116 colon; 32.3 µM with HCT-15 colon. In addition, the TGI in the experiment on IGROV1 ovarian amounted to 40.2 µM; in the experiment with NCI-H522 lung, 42.9 µM; in the experiment on OVCAR-5 ovarian it was 23 µM; with RPMI-8226 leukemia, 64.8 µM; with SF-268 CNS, 29.5 µM; in the experiment with SK-OV-3 ovarian it was 99.2 µM. Besides, the TGI in the experiment with SR leukemia and with TK-10 renal was more than 100 µM throughout.

(Values after PubChem BioAssay (NCI).)
